Data on 32 molecules can be found in a melting point compilation (Tetko et al.; mined from patent text by program, amines drawn as free bases though some values may be those of a salt).

Molecules are shown by their SMILES.

Usually melting point stands for the temperature, or range, at which the solid turns liquid. In the case of `CC(C)(C)c1ccc(C(O)(c2ccccc2)C2CCN(CCCC(O)c3ccccc3)CC2)cc1` (configuration not stated), the melting point was 161 to 163 °C.
Turning to `C=CCSC(=NC(=O)OC)NC(=O)Nc1ccc(C)cc1`, the melting point is 103 to 105 °C.
As for `Cc1nc2c(-c3cccc(N4CCN(CCO)CC4)c3)cnn2c(N)c1-c1ccc(F)c(Cl)c1`, the melting point was in the range of 104 to 107 °C.
In the case of `CCCCCCCCCc1cnc(-c2ccc(O)c(F)c2)nc1`, the melting point was in the range of 46 to 47.5 °C.
For `CCCCc1nn(Cc2ccc(-c3ccccc3-c3nnn[nH]3)cc2)c(=O)n1Cc1ccc(-c2ccccc2-c2nnn[nH]2)cc1`, the melting point is 150 to 151 °C.
As to `Cc1c(NC(=O)CC(C)(C)C)c(C)c2c(c1C(=O)c1ccccc1)OC[C@@H]2c1ccc(C(C)C)cc1`, the melting point is 205 to 206 °C.
In turn, `CCc1cc(C(=O)c2ccccc2Cl)c(-n2c(C)nnc2CNC(=O)Nc2cccc(C(=O)O)c2)s1` yielded a melting point of 178 to 180 °C.
For the molecule `Cn1c(Br)c(Br)c(Br)c1C#N`, the melting point lay within 115 to 119 °C.
The result for `Cc1ccc(C(=O)NCc2ccccc2)cc1-c1nc(S(C)(=O)=O)nc2c1CNC(=O)N2c1c(F)cccc1F` reads 239 to 241 °C; that for `O=c1[nH]c2cccc(OCCN3CCc4ccccc4C3)c2[nH]c1=O`, above 250 °C; that for `COc1ccc(-n2cnc3ccc(-c4nnc(SCc5cccc(C#N)c5)o4)cc32)cc1`, 157 to 158 °C.
In the case of `O=C1C(=Cc2ccncc2)CCc2ccccc21` it was 112 to 114 °C.
`CN(Cc1cccc(Cl)c1)c1ccc(C(N)=O)nc1` yielded a melting point of 178 to 183 °C.
`CCCC(=O)NCCC1=CCc2cc(F)c(OC)cc21` came in with a melting point of 90 to 92 °C.
The result for `COc1ccc(OCCCCCBr)c(C2Sc3cc(Cl)ccc3N(C)C2=O)c1` (configuration not stated) reads 105 to 106 °C; that for `COC(=O)/C=C/c1ccc(CCC(C)NCC(O)c2cccc(Cl)c2)cc1` (configuration not stated), 87 to 89 °C; that for `CCOCc1nc2c(N)nc(C)cc2n1CCCCNC(=O)C(C)C`, 170 to 172 °C.
Consider `COc1cccc2cc(CNCCNC(=O)C34CC5CC(CC(C5)C3)C4)oc12`, for which the melting point lay in the range of 105 to 110 °C.
The result for `O=C(NP(=O)(O)CCc1ccccc1)OCc1ccccc1` reads 110 °C; that for `CC(C)n1c(=O)n(C(=O)NCC2CCN(CC3(C(=O)O)CCC3)CC2)c2ccccc21`, 173 °C.
In turn, `CC(C)(Cc1ccc(Cl)cc1Cl)C(O)(Cn1cncn1)Cn1cncn1` came in with a melting point of 126 °C.
`O=C(Cn1c(-c2ccc(Cl)cc2)nc2cccnc21)NCC1CC1` yielded a melting point of 228 to 229 °C.
Turning to `CC(C)[C@H](NC(=O)/C=C/c1nccs1)C(=O)N[C@@H](Cc1ccccc1)[C@@H](O)[C@H](O)[C@H](Cc1ccccc1)NC(=O)[C@@H](NC(=O)/C=C/c1nccs1)C(C)C`, the melting point is above 260 °C.
In the case of `C[Si](C)(C)CCOCn1c(Br)nc(C#N)c1C#N` it was 47 to 52 °C; in that of `COc1ccnc(CCc2nc3cccnc3n2-c2ccc(OCc3ccccc3)c(F)c2)c1`, 168 to 170 °C.
In turn, `Nc1ccc(Sc2c(NCC=Cc3ccccc3)cc(C(=O)O)cc2S(N)(=O)=O)cc1` registered a melting point of 228 to 232 °C.
On to `CCn1nc(C(C)(C)C)cc1C(=O)Nc1ccc(F)c(C(=O)N(C)C)c1`, for which the melting point fell in the range of 93 to 95 °C.
`COC(=O)CCCCCCCCOC1OC(CO)C(O)C(OC2OC(CO)C(O)C(O)C2O)C1OC1OC(C)C(O)C(O)C1O` (configuration not stated) came in with a melting point of 147 to 150 °C.
In turn, `COc1cc(N[C@H]2CC[C@H](NCc3ccccc3)CC2)c(Cl)cc1C(N)=O` showed a melting point of 204 to 206 °C.
Regarding `CON=C(C)CC(C)(C)Cn1cnc2c(N)nc3ccccc3c21`, the melting point is 148 to 150 °C.
The molecule `Cc1nc2cccc(OCC(C)(C)NC(=O)c3cccc(O)c3)c2c(N)c1C(=O)O` gave a melting point of 195 to 198 °C.
For the molecule `Cc1ccc(-c2ccc3c(c2)C=C(C(=O)N[C@H]2CC[C@H](CN(C)C4CCOCC4)CC2)CCO3)cc1`, the melting point is 144 to 146 °C.
